# Key:
# Assay type in all cases: physicochemical
# [1] = Through life dose consistency of nintedanib (free base) pMDI suspensions (USP <601>, apparatus A)
# Protocol: (§1) In the following examples, dose consistency was determined by in vitro measurement of single actuation dose content at start, middle and end of pMDI unit life in line with U.S. Pharmacopeia (USP)<601>, using a flow rate of 28.3 L/min and apparatus A. Aerodynamic particle size distribution of the pMDI suspension aerosols was measured at start of unit life in line with U.S. Pharmacopeia (USP)<601> using a Next Generation impactor without pre-separator (apparatus 6) and a flow rate of 30 L/min.
# (§2) Suspensions of micronized nintedanib (free base) in HFA-152a or HFO-1234ze(E) were prepared. A first set of suspensions included no ethanol. A second set of suspensions included 2% ethanol by weight. Each suspension included an amount of nintedanib (free base) to provide a nominal delivered dose (ex-valve) of 0.5 mg/actuation (7.94 mg/mL) or 1.0 mg/actuation (15.87 mg/mL). Two further suspensions including no ethanol were prepared which included an amount of nintedanib (free base) to provide a nominal delivered dose (ex-valve) of 2.0 mg/actuation (20.0 mg/mL).
# (§3) In total, ten suspension pMDI formulations were prepared in triplicate with sufficient fill weight to provide 60 actuations. The pMDI formulations containing 0.5 mg/actuation (7.94 mg/mL) and 1.0 mg/actuation (15.87 mg/mL) of nintedanib (free base) were filled into Kindeva FEP coated canisters, crimped with a Kindeva 63-μL valve. The pMDI formulations containing 2.0 mg/actuation (20.0 mg/mL) of nintedanib (free base) were filled into Kindeva FEP coated canisters, crimped with a Kindeva 100-μL valve. Each pMDI unit was sonicated for at least 10 minutes to disperse the suspended drug and tested with a Kindeva actuator having an exit orifice diameter (EOD) of 0.4 mm.
# The through-life (TL) dose consistency of each pMDI unit was determined by measuring the mean ex-actuator delivered dose in micrograms of nintedanib (free base) (N=3) at the start of life (SoL), middle of life (MOL) and end of life (EoL) of the unit.
# [2] = Aerodynamic particle size measurement of nintedanib (free base) pMDI suspensions (Next Generation impactor)
# Source text: In general, aerosols with mass median aerodynamic diameters (MMAD) of at least 1 μm but less than 5 μm in size are suitable for effective deep lung deposition for therapeutic effect. Herein, fine particle fraction (FPF) is defined as the percentage of the ex-actuator delivered API having a MMAD of less than 5 μm when tested in vitro. Herein, “ex-actuator” delivered dose is used to describe the amount of API delivered past the actuator of a pMDI. Therefore, an aerosol with a high FPF is typically suitable for deep lung deposition.
# as §1, §2
# as §3, with “mm. The mass median aerodynamic diameter (MMAD) and fine particle fraction (FPF) of each pMDI unit were measured by Next Generation cascade impaction (N=3) for each pMDI suspension.” for “mm.”
# [3] = Additional through life dosing content uniformity of nintedanib suspension in HFO-1234ze(E), coated 63-microliter valve; conditions: nominal 1 mg/actuation (15.9 mg/mL), HFO-1234ze(E) without ethanol
# Protocol: as §1
# (§4) A suspension of nintedanib was prepared in HFO-1234ze(E). The concentration of nintedanib (15.9 mg/mL) was selected to provide a nominal actuation dose of 1 mg/actuation from a 63-microliter valve. The bottle emptier, tank, spring, and ferrule components of the valves were coated with a fluoropolymer coating according to the general process described in Example 2 of U.S. Patent Application Publication 2017/0152396 A1 (Jinks et al., hereby incorporated by reference). The formulation was mixed with a high shear mixer and cold filled into 16 mL FEP-coated canisters.
# (§5) Average fine particle mass (<5 μm) was 434 μg/actuation.
# [4] = Fine particle mass of nintedanib suspension in HFO-1234ze(E), coated 63-microliter valve; conditions: nominal 1 mg/actuation (15.9 mg/mL), HFO-1234ze(E) without ethanol
# Protocol: as §1, §4, §5
# [5] = nominal ex-valve 0.5 mg/act, HFA152a/2% EtOH (w/w), 63-μL valve
# [6] = nominal ex-valve 0.5 mg/act, HFA152a, 63-μL valve
# [7] = nominal ex-valve 0.5 mg/act, HFO1234ze(E)/2% EtOH (w/w), 63-μL valve
# [8] = nominal ex-valve 0.5 mg/act, HFO1234ze(E), 63-μL valve
# [9] = nominal ex-valve 1.0 mg/act, HFA152a/2% EtOH (w/w), 63-μL valve
# [10] = nominal ex-valve 1.0 mg/act, HFA152a, 63-μL valve
# [11] = nominal ex-valve 1.0 mg/act, HFO1234ze(E)/2% EtOH (w/w), 63-μL valve
# [12] = nominal ex-valve 1.0 mg/act, HFO1234ze(E), 63-μL valve
# [13] = nominal ex-valve 2.0 mg/act, HFA152a, 100-μL valve
# [14] = nominal ex-valve 2.0 mg/act, HFO1234ze(E), 100-μL valve
# [15] = nominal ex-valve 0.5 mg/act, HFA-152a/2% EtOH (w/w), 63-μL valve
# [16] = nominal ex-valve 0.5 mg/act, HFA-152a, 63-μL valve
# [17] = nominal ex-valve 0.5 mg/act, HFO-1234ze(E)/2% EtOH (w/w), 63-μL valve
# [18] = nominal ex-valve 0.5 mg/act, HFO-1234ze(E), 63-μL valve
# [19] = nominal ex-valve 1.0 mg/act, HFA-152a/2% EtOH (w/w), 63-μL valve
# [20] = nominal ex-valve 1.0 mg/act, HFA-152a, 63-μL valve
# [21] = nominal ex-valve 1.0 mg/act, HFO-1234ze(E)/2% EtOH (w/w), 63-μL valve
# [22] = nominal ex-valve 1.0 mg/act, HFO-1234ze(E), 63-μL valve
# [23] = nominal ex-valve 2.0 mg/act, HFA-152a, 100-μL valve
# [24] = nominal ex-valve 2.0 mg/act, HFO-1234ze(E), 100-μL valve
smiles,measurement,setting,value
"COC(=O)c1ccc2c(c1)NC(=O)/C2=C(\Nc1ccc(N(C)C(=O)CN2CCN(C)CC2)cc1)c1ccccc1 [nintedanib (free base), nintedanib]",effect of addition of ethanol on through unit life ex-actuator delivered dose consistency,"[1]; 2% ethanol by weight, HFA-152a or HFO-1234ze(E)",did not always substantially improve
same,through unit life ex-actuator delivered dose consistency,[1]; HFA-152a or HFO-1234ze(E) with and without 2% ethanol by weight,relatively consistent
same,EoL mean delivered dose,[1]; [5],383.1 μg/act
same,MoL mean delivered dose,[1]; [5],364.6 μg/act
same,SoL mean delivered dose,[1]; [5],452.4 μg/act
same,TL mean delivered dose,[1]; [5],400.1 μg/act
same,EoL mean delivered dose,[1]; [6],335.9 μg/act
same,MoL mean delivered dose,[1]; [6],360.0 μg/act
same,SoL mean delivered dose,[1]; [6],468.9 μg/act
same,TL mean delivered dose,[1]; [6],388.3 μg/act
same,EoL mean delivered dose,[1]; [7],378.0 μg/act
same,MoL mean delivered dose,[1]; [7],385.9 μg/act
same,SoL mean delivered dose,[1]; [7],431.1 μg/act
same,TL mean delivered dose,[1]; [7],398.3 μg/act
same,EoL mean delivered dose,[1]; [8],380.5 μg/act
same,MoL mean delivered dose,[1]; [8],372.8 μg/act
same,SoL mean delivered dose,[1]; [8],401.8 μg/act
same,TL mean delivered dose,[1]; [8],385.0 μg/act
same,EoL mean delivered dose,[1]; [9],818.8 μg/act
same,MoL mean delivered dose,[1]; [9],773.1 μg/act
same,SoL mean delivered dose,[1]; [9],940.6 μg/act
same,TL mean delivered dose,[1]; [9],844.2 μg/act
same,EoL mean delivered dose,[1]; [10],890.2 μg/act
same,MoL mean delivered dose,[1]; [10],759.1 μg/act
same,SoL mean delivered dose,[1]; [10],1020.0 μg/act
same,TL mean delivered dose,[1]; [10],889.8 μg/act
same,EoL mean delivered dose,[1]; [11],818.5 μg/act
same,MoL mean delivered dose,[1]; [11],824.9 μg/act
same,SoL mean delivered dose,[1]; [11],926.7 μg/act
same,TL mean delivered dose,[1]; [11],856.7 μg/act
same,EoL mean delivered dose,[1]; [12],947.3 μg/act
same,MoL mean delivered dose,[1]; [12],962.2 μg/act
same,SoL mean delivered dose,[1]; [12],947.8 μg/act
same,TL mean delivered dose,[1]; [12],952.4 μg/act
same,EoL mean delivered dose,[1]; [13],1954.6 μg/act
same,MoL mean delivered dose,[1]; [13],1876.0 μg/act
same,SoL mean delivered dose,[1]; [13],2205.7 μg/act
same,TL mean delivered dose,[1]; [13],2012.2 μg/act
same,EoL mean delivered dose,[1]; [14],2282.4 μg/act
same,MoL mean delivered dose,[1]; [14],1884.0 μg/act
same,SoL mean delivered dose,[1]; [14],1561.8 μg/act
same,TL mean delivered dose,[1]; [14],1909.4 μg/act
same,"MMAD values of aerosols, suitability","[2]; HFA-152a or HFO-1234ze(E), with and without ethanol, in-vitro",in an appropriate respirable range
same,FPF and MMAD without ethanol compared with corresponding suspensions with 2% ethanol by weight,"[2]; HFA-152a or HFO-1234ze(E), all nominal doses",consistently produced greater FPFs and smaller MMADs
same,Mean FPF,[2]; [15],26.9%
same,Mean MMAD,[2]; [15],3.65 μm
same,Mean FPF,[2]; [16],33.7%
same,Mean MMAD,[2]; [16],3.74 μm
same,Mean FPF,[2]; [17],36.8%
same,Mean MMAD,[2]; [17],3.50 μm
same,Mean FPF,[2]; [18],60.0%
same,Mean MMAD,[2]; [18],2.88 μm
same,Mean FPF,[2]; [19],18.0%
same,Mean MMAD,[2]; [19],4.74 μm
same,Mean FPF,[2]; [20],23.8%
same,Mean MMAD,[2]; [20],5.01 μm
same,Mean FPF,[2]; [21],29.3%
same,Mean MMAD,[2]; [21],4.20 μm
same,Mean FPF,[2]; [22],44.4%
same,Mean MMAD,[2]; [22],3.66 μm
same,Mean FPF,[2]; [23],16.7%
same,Mean MMAD,[2]; [23],7.47 μm
same,Mean FPF,[2]; [24],34.8%
same,Mean MMAD,[2]; [24],4.08 μm
same,FPF and MMAD in HFO-1234ze(E) compared with corresponding suspensions in HFA-152a,[2]; with or without ethanol,consistently produced greater FPFs and smaller MMADs
same,"Through life dosing content uniformity, trend",[3],"no trending between start, middle, and end of life"
same,average dose (through life dosing content uniformity),[3],950 μg/actuation
same,Average fine particle mass (<5 μm),[4],434 μg/actuation
